Active and inactive are the calls of the source. The rule behind the calls is not given here.
Columns and labels:
NUGC = experiment: Cytotoxicity against human NUGC cells; assay type: functional, cell-based
HONE1 = experiment: Cytotoxicity against human HONE1 cells; assay type: functional, cell-based

Question: What does the source list for `O=C(C[C@@H]1NCCC[C@H]1O)Cn1cnc2ccccc2c1=O`?
Answer: Activity (NUGC): inactive; Activity (HONE1): inactive

Question: `O=C1C[C@@H]2[C@@H](O)CCCN2[C@H](n2cnc3ccccc3c2=O)C1` was tested. Which Activity (NUGC) did it give?
Answer: The Activity was “inactive”.

Question: And the Activity (HONE1)?
Answer: The Activity was “inactive”.

Question: `CC1(C)[C@@H](n2cnc3ccccc3c2=O)C(=O)C[C@@H]2[C@@H](O)CCCN21` was tested. Which Activity (NUGC) did it give?
Answer: The Activity was “inactive”.

Question: And the Activity (HONE1)?
Answer: The Activity was “inactive”.

Reference: ChEMBL document CHEMBL1155729, “Hydrachine A, a novel alkaloid from the roots of Hydrangea chinensis” (J Nat Prod, 2001)
